Converted amounts (≈) assume the structure as drawn.
What was measured:
[1] = system: in vitro grown Mycobacteria (M. tuberculosis); assay: QUM: Quantification of in vitro grown Mycobacteria (in vitro growth fluorescence assay); type: cell-based; settings: MIC, 80% bacterial growth inhibition, in vitro growth; for MIC: Mycobacterium tuberculosis, read-out: QUM
In short: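 Mycobacterium tuberculosis grown in vitro was quantified by fluorescence across compound dose responses. MIC is defined as the minimum concentration producing 80% growth inhibition.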

[2] = system: M. tuberculosis inside the host macrophage; assay: QIM: Quantification of Intracellular Mycobacteria (intracellular growth assay, phenotypic cell-based); settings: MIC, 80% bacterial growth inhibition, intracellular growth; for MIC: Mycobacterium tuberculosis, read-out: QIM
In short: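 Dose-response testing of intracellular mycobacterial replication in infected macrophages, a cell-based screening format; MIC is defined as the lowest concentration achieving 80% inhibition of bacterial growth.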

Work on `CCc1nc2cc([N+](=O)[O-])ccn2c1C(=O)NCc1ccc(N2CCC(Oc3ccc(OC(F)(F)F)cc3)CC2)cc1` [Compound 170, 2-Ethyl-7-nitro-N-(4-(4-(4-(trifluoromethoxy)phenoxy)piperidin-1-yl)benzyl) imidazo[1,2-a]pyridine-3-carboxamide] yielded an MIC [1] of 1 to 20 µM (≈ 0.584 to 11.7 µg/mL) and an MIC [2] of 1 to 20 µM (≈ 0.584 to 11.7 µg/mL).

In the case of `CCc1nc2ccc(Cl)cn2c1C(=O)NCc1ccc(N2CCN(Cc3ccc(F)cc3)CC2)cc1` [Compound 171, 6-Chloro-2-ethyl-N-(4-(4-(4-fluorobenzyl)piperazin-1-yl)benzyl)imidazo[1,2-a]pyridine-3-carboxamide], the MIC [1] is reported as < 1 µM and the MIC [2] is reported as < 1 µM.

With `CCc1nc2cc(Cl)c(Cl)cn2c1C(=O)NCc1ccc(N2CCN(Cc3ccc(F)cc3)CC2)cc1` [Compound 175, 6,7-Dichloro-2-ethyl-N-(4-(4-(4-fluorobenzyl)piperazin-1-yl)benzyl)imidazo[1,2-a]pyridine-3-carboxamide] the MIC [1] was > 20 µM and the MIC [2] was < 1 µM.

`CCc1nc2cc(Cl)c(Cl)cn2c1C(=O)NCc1ccc(N2CCN(c3ccc(F)cc3)CC2)cc1` [Compound 180, 6,7-Dichloro-2-ethyl-N-(4-(4-(4-fluorophenyl)piperazin-1-yl)benzyl)imidazo[1,2-a]pyridine-3-carboxamide] was tested, and the MIC [1] was < 1 µM and the MIC [2] was < 1 µM.

`CCCCCC(=O)NCc1ccc(-c2ccc(CNC(=O)c3c(CC)nc4cc(Cl)ccn34)cc2)cc1` [Compound 184, 7-Chloro-2-ethyl-N-((4′-(hexanamidomethyl)biphenyl-4-yl)methyl)imidazo[1,2-a]pyridine-3-carboxamide] was tested, and the MIC [1] was < 1 µM and the MIC [2] was < 1 µM.

With `CCc1nc2cc(Cl)ccn2c1C(=O)NCc1ccc(Oc2ccc(F)cc2)cc1` [Compound 188, 7-Chloro-2-ethyl-N-(4-(4-fluorophenoxy)benzyl)imidazo[1,2-a]pyridine-3-carboxamide] the MIC [1] was < 1 µM and the MIC [2] was < 1 µM.

For `CCc1nc2ccc(Br)cn2c1C(=O)NCc1ccc(Oc2ccc(F)cc2)cc1` [Compound 189, 6-Bromo-2-ethyl-N-(4-(4-fluorophenoxy)benzyl)imidazo[1,2-a]pyridine-3-carboxamide], the MIC [1] was < 1 µM and the MIC [2] was < 1 µM.

For `CCc1nc2ccccn2c1C(=O)NCc1ccc(Oc2ccc(OC(F)(F)F)cc2)cc1` [Compound 192, 2-Ethyl-N-(4-(4-(trifluoromethoxy)phenoxy)benzyl)imidazo[1,2-a]pyridine-3-carboxamide], the MIC [1] was < 1 µM and the MIC [2] was < 1 µM.

`CCc1nc2cc(Cl)ccn2c1C(=O)NCc1ccc(Oc2ccc(OC(F)(F)F)cc2)nc1` [Compound 195, 7-Chloro-2-ethyl-N-((6-(4-(trifluoromethoxy)phenoxy)pyridin-3-yl)methyl)imidazo[1,2-a]pyridine-3-carboxamide] gave an MIC [1] of 1 to 20 µM (≈ 0.491 to 9.82 µg/mL) and an MIC [2] of 1 to 20 µM (≈ 0.491 to 9.82 µg/mL).

`CCc1nc2ccc(Cl)cn2c1C(=O)N(C)Cc1ccc(Oc2ccc(F)cc2)cc1` [Compound 197, 6-Chloro-2-ethyl-N-(4-(4-fluorophenoxy)benzyl)-N-methylimidazo[1,2-a]pyridine-3-carboxamide] gave an MIC [1] of 1 to 20 µM (≈ 0.438 to 8.76 µg/mL) and an MIC [2] of 1 to 20 µM (≈ 0.438 to 8.76 µg/mL).

In the case of `CCc1nc2ccc(Cl)cn2c1C(=O)NCc1ccc(Nc2ccc(OC(F)(F)F)cc2)cc1` [Compound 198, 6-Chloro-2-ethyl-N-(4-(4-(trifluoromethoxy)phenylamino)benzyl)imidazo[1,2-a]pyridine-3-carboxamide], the MIC [1] is reported as 1 to 20 µM (≈ 0.489 to 9.78 µg/mL) and the MIC [2] is reported as < 1 µM.

With `CCc1nc2cc(Cl)ccn2c1C(=O)NCc1ccc(Nc2ccc(OC(F)(F)F)cc2)cc1` [Compound 199, 7-Chloro-2-ethyl-N-(4-(4-(trifluoromethoxy)phenylamino)benzyl)imidazo[1,2-a]pyridine-3-carboxamide] the MIC [1] was < 1 µM and the MIC [2] was < 1 µM.

For `CCc1nc2ccc(Cl)cn2c1C(=O)NCc1ccc(OCc2ccc(F)cc2)cc1` [Compound 202, 6-Chloro-2-ethyl-N-(4-(4-fluorobenzyloxy)benzyl)imidazo[1,2-a]pyridine-3-carboxamide], the MIC [1] was < 1 µM and the MIC [2] was < 1 µM.

`CCc1nc2cc(Cl)ccn2c1C(=O)NCc1ccc(OCc2ccc(F)cc2)cc1` [Compound 203, 7-Chloro-2-ethyl-N-(4-(4-fluorobenzyloxy)benzyl)imidazo[1,2-a]pyridine-3-carboxamide] was tested, and the MIC [1] was 1 to 20 µM (≈ 0.438 to 8.76 µg/mL) and the MIC [2] was 1 to 20 µM (≈ 0.438 to 8.76 µg/mL).

`CCc1nc2ccc(Cl)cn2c1C(=O)NCc1ccc2[nH]c(-c3ccc(OC(F)(F)F)cc3)nc2c1` [Compound 204, 6-Chloro-2-ethyl-N-((2-(4-(trifluoromethoxy)phenyl)-1H-benzo[d]imidazol-5-yl)methyl) imidazo[1,2-a]pyridine-3-carboxamide] was tested, and the MIC [1] was > 20 µM and the MIC [2] was > 20 µM.

`CCc1nc2cc(Cl)ccn2c1C(=O)NCc1ccc2[nH]c(-c3ccc(OC(F)(F)F)cc3)nc2c1` [Compound 205, 7-Chloro-2-ethyl-N-((2-(4-(trifluoromethoxy)phenyl)-1H-benzo[d]imidazol-5-yl)methyl) imidazo[1,2-a]pyridine-3-carboxamide] was tested, and the MIC [1] was > 20 µM and the MIC [2] was > 20 µM.

With `CCc1nc2cc(Cl)ccn2c1C(=O)NCc1ccc2[nH]c(CN3CCOCC3)nc2c1` [Compound 206, 7-Chloro-2-ethyl-N-((2-(morpholinomethyl)-1H-benzo[d]imidazol-5-yl)methyl) imidazo[1,2-a]pyridine-3-carboxamide] the MIC [1] was > 20 µM and the MIC [2] was > 20 µM.

With `CCc1nc2ccc(Cl)cn2c1C(=O)NCc1ccc2oc(-c3ccc(OC(F)(F)F)cc3)nc2c1` [Compound 207, 6-Chloro-2-ethyl-N-((2-(4-(trifluoromethoxy)phenyl)benzo[d]oxazol-5-yl)methyl)imidazo[1,2-a]pyridine-3-carboxamide] the MIC [1] was < 1 µM and the MIC [2] was < 1 µM.

For `CCc1nc2cc(Cl)ccn2c1C(=O)NCc1ccc2oc(-c3ccc(OC(F)(F)F)cc3)nc2c1` [Compound 208, 7-Chloro-2-ethyl-N-((2-(4-(trifluoromethoxy)phenyl)benzo[d]oxazol-5-yl)methyl)imidazo[1,2-a]pyridine-3-carboxamide], the MIC [1] was < 1 µM and the MIC [2] was < 1 µM.

`CCc1nc2cc(Cl)ccn2c1C(=O)NCc1ccc(N2CCCC2)cc1` [Compound 212, 7-Chloro-2-ethyl-N-(4-(pyrrolidin-1-yl)benzyl)imidazo[1,2-a]pyridine-3-carboxamide] was tested, and the MIC [1] was < 1 µM and the MIC [2] was < 1 µM.

For `CCc1nc2cc(Cl)ccn2c1C(=O)NCc1ccc(N2CC=CCC2)cc1` [Compound 213, 7-Chloro-N-(4-(5,6-dihydropyridin-1(2H)-yl)benzyl)-2-ethylimidazo[1,2-a]pyridine-3-carboxamide], the MIC [1] was < 1 µM and the MIC [2] was 1 to 20 µM (≈ 0.395 to 7.9 µg/mL).

`CCc1nc2ccc(Cl)cn2c1C(=O)NCc1ccc(N2CCC(C)CC2)cc1` [Compound 214, 6-Chloro-2-ethyl-N-(4-(4-methylpiperidin-1-yl)benzyl)imidazo[1,2-a]pyridine-3-carboxamide] was tested, and the MIC [1] was < 1 µM and the MIC [2] was < 1 µM.

For `CCc1nc2cc(Cl)ccn2c1C(=O)NCc1ccc(N2CCC(C)CC2)cc1` [Compound 215, 7-Chloro-2-ethyl-N-(4-(4-methylpiperidin-1-yl)benzyl)imidazo[1,2-a]pyridine-3-carboxamide], the MIC [1] was < 1 µM and the MIC [2] was < 1 µM.

For `CCc1nc2ccc(Cl)cn2c1C(=O)NCc1ccc(N2CCCCCC2)cc1` [Compound 221, N-(4-(Azepan-1-yl)benzyl)-6-chloro-2-ethylimidazo[1,2-a]pyridine-3-carboxamide], the MIC [1] was < 1 µM and the MIC [2] was < 1 µM.

For `CCc1nc2cc(Cl)ccn2c1C(=O)NCc1ccc(N2CCCCCC2)cc1` [Compound 222, N-(4-(Azepan-1-yl)benzyl)-7-chloro-2-ethylimidazo[1,2-a]pyridine-3-carboxamide], the MIC [1] was < 1 µM and the MIC [2] was < 1 µM.

For `CCc1nc2ccc(Cl)cn2c1C(=O)N1CCC(OCc2ccc(OC(F)(F)F)cc2)CC1` [Compound 230, (6-Chloro-2-ethylimidazo[1,2-a]pyridin-3-yl)(4-(4-(trifluoromethoxy)benzyloxy)piperidin-1-yl)methanone], the MIC [1] was > 20 µM and the MIC [2] was > 20 µM.

With `CCc1nc2ccc(Cl)cn2c1C(=O)NCc1ccn(-c2ccc(OC(F)(F)F)cc2)n1` [Compound 231, 6-Chloro-2-ethyl-N-((1-(4-(trifluoromethoxy)phenyl)-1H-pyrazol-3-yl)methyl) imidazo[1,2-a]pyridine-3-carboxamide] the MIC [1] was < 1 µM and the MIC [2] was < 1 µM.

In the case of `CCc1nc2cc(Cl)ccn2c1C(=O)NCc1ccn(-c2ccc(OC(F)(F)F)cc2)n1` [Compound 232, 7-Chloro-2-ethyl-N-((1-(4-(trifluoromethoxy)phenyl)-1H-pyrazol-3-yl)methyl) imidazo[1,2-a]pyridine-3-carboxamide], the “QUM (μM)” value [1] is reported as “++ (++ indicates between 1-20 uM)” and the “QIM (μM)” value [2] is reported as “++ (++ indicates between 1-20 uM)”.

With `CCc1nc2ccc(Cl)cn2c1C(=O)NCc1ccn(-c2ccc(C(F)(F)F)cc2)n1` [Compound 233, 6-Chloro-2-ethyl-N-4-((1-(4-(trifluoromethyl)phenyl)-1H-pyrazol-3-yl)methyl)imidazo[1,2-a]pyridine-3-carboxamide] the MIC [1] was > 20 µM and the MIC [2] was > 20 µM.

`CCc1nc2cc(Cl)ccn2c1C(=O)NCc1ccn(-c2ccc(C(F)(F)F)cc2)n1` [Compound 234, 7-Chloro-2-ethyl-N-((1-(4-(trifluoromethyl)phenyl)-1H-pyrazol-3-yl)methyl)imidazo[1,2-a]pyridine-3-carboxamide] showed an MIC [1] of 1 to 20 µM (≈ 0.448 to 8.96 µg/mL) and an MIC [2] of 1 to 20 µM (≈ 0.448 to 8.96 µg/mL).

In the case of `CCc1nc2ccc(Cl)cn2c1C(=O)NCc1ccn(-c2ccc(F)cc2)n1` [Compound 235, 6-Chloro-2-ethyl-N-((1-(4-fluorophenyl)-1H-pyrazol-3-yl)methyl)imidazo[1,2-a]pyridine-3-carboxamide], the MIC [1] is reported as 1 to 20 µM (≈ 0.398 to 7.96 µg/mL) and the MIC [2] is reported as 1 to 20 µM (≈ 0.398 to 7.96 µg/mL).

In the case of `CCc1nc2cc(Cl)ccn2c1C(=O)NCc1ccn(-c2ccc(F)cc2)n1` [Compound 236, 7-Chloro-2-ethyl-N-((1-(4-fluorophenyl)-1H-pyrazol-3-yl)methyl)imidazo[1,2-a]pyridine-3-carboxamide], the MIC [1] is reported as 1 to 20 µM (≈ 0.398 to 7.96 µg/mL) and the MIC [2] is reported as > 20 µM.

Source: patent US8865734B2 (priority 2010, dated 2014)
